Reference: US9232798B2, “Pesticidal composition and its use” (SUMITOMO CHEMICAL COMPANY, LIMITED, priority 2010, dated 2016)

Test system: Rhizoctonia solani
Experiment: Soybean seed treatment test against Rhizoctonia solani in contaminated soil (Test Example)
Type: in vivo, Rhizoctonia solani on soybean (variety: Natto shoryu)
Details: carboxamide compound alone 0.2 g/100 kg of seeds (no fipronil), soybean grown 20 days in soil contaminated by Rhizoctonia solani, from disease severity versus non-treated plot
Procedure: A cyclohexanone solution (100 microL) containing prescribed amount (weight) of a test compound was applied on seeds of soybean (variety: Natto shoryu) (10 g) by using a rotary apparatus for seed treatment (Seed dresser, manufactured by Hans-Ulrich Hege GmbH).
One day after the treatment, plastic pot was filled with soil contaminated by Rhizoctonia solani, and the seeds treated with the test compounds were seeded in the soil and cultivated in a glass-greenhouse for 20 days (hereinafter referred to as “treated plot”).
Thereafter, the presence of disease caused by Rhizoctonia solani in the young plants which germinated from each seed was observed and disease severity was calculated according to the following calculation formula (1).
On the other hand, seeds of soybean which were not treated as above were cultivated in the same way as above (hereinafter referred to as “non-treated plot”) and the disease severity in “non-treated plot” was calculated in the same way as above “treated plot”. On the basis of the above disease severity in “treated plot” and the “non-treated plot”, efficacy in “treated plot” was evaluated according to the following calculation formula (2). […]

CC1CC(C)(C)c2cccc(NC(=O)c3cn(C)nc3C(F)F)c21 (stereo not shown) [carboxamide compound (1)]
efficacy (%): 42.1%
